Source: US7659299B2, “Compounds inhibiting the binding of sap for treating osteoarthritis” (Pentraxin Therapeutics Limited, priority 2003, dated 2010)

Key:
Design in all cases: 5 μl of radiolabelled SAP in TN; from tissue
SAP [1] = target: T1, SAP (Homo sapiens, UniProt P02743); test: Inhibition of binding of 125I radiolabelled SAP to Neisseria meningitidis immobilized in microtitre plates; conditions: for inhibition at 0.2 µM / inhibition at 2 µM / inhibition at 20 µM / inhibition at 200 µM / inhibition at 2000 µM: read-out: Percent inhibition of binding of radiolabelled SAP to immobilized Neisseria meningitidis
T1 sequence (P02743 20-223): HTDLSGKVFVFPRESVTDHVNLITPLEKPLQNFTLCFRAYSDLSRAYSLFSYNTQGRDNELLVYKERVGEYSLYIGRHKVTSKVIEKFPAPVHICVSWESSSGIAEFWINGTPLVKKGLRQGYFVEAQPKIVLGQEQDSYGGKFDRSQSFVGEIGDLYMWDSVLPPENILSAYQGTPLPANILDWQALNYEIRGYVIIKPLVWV
Procedure: A suspension of heat killed Neisseria meningitidis at 1×10^8 organisms per ml in PBS was dispensed to polystyrene microtitre plates at 50 μl volumes per well, and left overnight at 4° C. All wells were then washed three times with 200 μl volumes of PBS containing 0.05% v/v Tween 20, prior to equilibration for 2 min with 0.01M Tris buffered 0.14M NaCl/0.002M CaCl2 at pH 8.0 (TC buffer), containing 4% w/v BSA and 0.05%/v Tween 20 (TCBT buffer). The wells were then emptied before adding to each one the following reagents. […] For background, non-specific, non calcium dependent, binding in the presence of EDTA: 5 μl radiolabelled SAP in TN and 45 μl 0.01M Tris buffered 0.14M NaCl at pH 8.0 containing 11.1 mM EDTA, 4.4% w/v BSA and 0.06% w/v Tween 20 (TEBT buffer) to provide final concentrations of EDTA, 10 mM; BSA, 4%; Tween 20, 0.05%. […] All wells were then incubated at room temperature for 2 h before being washed three times with 200 μl volumes of TCBT, allowed to dry for 1 h at room temperature, and bound radiolabelled SAP was then counted.
The capacity of the compounds tested to inhibit binding of SAP to meningococci is expressed as the percentage by which SAP binding was reduced compared to binding in the absence of any inhibitor (Table 1).

SAP [2] = target: T1, SAP; test: Inhibition of binding of 125I radiolabelled SAP to native long chromatin immobilized in microtitre plates; conditions: for inhibition at 0.2 µM / inhibition at 2 µM / inhibition at 20 µM / inhibition at 200 µM / inhibition at 2000 µM: read-out: Percent inhibition of binding of radiolabelled SAP to immobilized native long chromatin
SAP [3] = target: T1, SAP; test: Inhibition of binding of 125I radiolabelled SAP to influenza virus immobilized in microtitre plates; conditions: for inhibition at 0.2 µM / inhibition at 2 µM / inhibition at 20 µM / inhibition at 200 µM / inhibition at 2000 µM: read-out: Percent inhibition of binding of radiolabelled SAP to immobilized influenza virus
Procedure: A concentrated suspension of purified influenza virus A/Shanghai/24/90 at 10 mg protein per ml in PBS was diluted 1:50 in PBS and then dispensed to polystyrene microtitre plates at 50 μl volumes per well, and left overnight at 4° C. All wells were then emptied before blocking by addition to each well of 200 μl of 2% w/v BSA in PBS and incubation at room temperature for 1 h. All wells were then washed three times with 200 μl volumes of PBS containing 0.05% v/v Tween 20, prior to equilibration for 2 min with 0.01M Tris buffered 0.14M NaCl/0.002M CaCl2 at pH 8.0 (TC buffer), containing 4% w/v BSA and 0.05% v/v Tween 20 (TCBT buffer). The wells were then emptied before adding to each one the following reagents. […] For background, non-specific, non calcium dependent, binding in the presence of EDTA: 5 μl radiolabelled SAP in TN and 45 μl 0.01M Tris buffered 0.14M NaCl at pH 8.0 containing 11.1 mM EDTA, 4.4% w/v BSA and 0.06% w/v Tween 20 (TEBT buffer) to provide final concentrations of EDTA, 10 mM; BSA, 4%; Tween 20, 0.05%. […] All wells were then incubated at room temperature for 2 h before being washed three times with 200 μl volumes of TCBT, allowed to dry for 1 h at room temperature, and bound radiolabelled SAP was then counted. The compounds tested in the experiment shown here were the same as those specified in Example B above.
The capacity of the compounds tested to inhibit binding of SAP to the immobilised influenza virus is expressed as the percentage by which SAP binding was reduced compared to binding in the absence of any inhibitor (Table 3).

O=C(O)[C@H]1CCCN1C(=O)Cc1cccc(CC(=O)N2CCC[C@@H]2C(=O)O)c1 [Ro-64-2668, (R)-1-[[3-[2-[(R)-2-Carboxy-pyrrolidin-1-yl]-2-oxo-ethyl]-phenyl]-acetyl]-pyrrolidine-2-carboxylic acid]
inhibition at 0.2 µM (SAP [1]; compound 200 nM): 28%
inhibition at 2 µM (SAP [1]; compound 2 μM): 64%
inhibition at 20 µM (SAP [1]; compound 20 μM): 92%
inhibition at 200 µM (SAP [1]; compound 200 μM): 100%
inhibition at 2000 µM (SAP [1]; compound 2 mM): 100%
inhibition at 0.2 µM (SAP [2]; compound 200 nM): 0%
inhibition at 2 µM (SAP [2]; compound 2 μM): 18%
inhibition at 20 µM (SAP [2]; compound 20 μM): 56%
inhibition at 200 µM (SAP [2]; compound 200 μM): 94%
inhibition at 2000 µM (SAP [2]; compound 2 mM): 98%
inhibition at 0.2 µM (SAP [3]; compound 200 nM): 25%
inhibition at 2 µM (SAP [3]; compound 2 μM): 68%
inhibition at 20 µM (SAP [3]; compound 20 μM): 73%
inhibition at 200 µM (SAP [3]; compound 200 μM): 77%
inhibition at 2000 µM (SAP [3]; compound 2 mM): 82%

COc1cccc(OCC(=O)N2CCC[C@@H]2C(=O)O)c1OCC(=O)N1CCC[C@@H]1C(=O)O [Ro-64-2845, (R)-1-[[2-[2-[(R)-2-carboxy-pyrrolidin-1-yl]-2-oxo-ethoxy]-3-methoxy-phenoxy]-acetyl]-pyrrolidine-2-carboxylic acid]
inhibition at 0.2 µM (SAP [1]; compound 200 nM): 19%
inhibition at 2 µM (SAP [1]; compound 2 μM): 74%
inhibition at 20 µM (SAP [1]; compound 20 μM): 92%
inhibition at 200 µM (SAP [1]; compound 200 μM): 93%
inhibition at 0.2 µM (SAP [2]; compound 200 nM): 11%
inhibition at 20 µM (SAP [2]; compound 20 μM): 75%
inhibition at 200 µM (SAP [2]; compound 200 μM): 96%
inhibition at 2000 µM (SAP [2]; compound 2 mM): 100%
inhibition at 0.2 µM (SAP [3]; compound 200 nM): 16%
inhibition at 2 µM (SAP [3]; compound 2 μM): 52%
inhibition at 20 µM (SAP [3]; compound 20 μM): 62%
inhibition at 200 µM (SAP [3]; compound 200 μM): 77%
inhibition at 2000 µM (SAP [3]; compound 2 mM): 89%

Cc1c(OCC(=O)N2CCC[C@@H]2C(=O)O)cccc1OCC(=O)N1CCC[C@@H]1C(=O)O [Ro-64-2848, (R)-1-[[3-[2-[(R)-1-Carboxy-pyrrolidin-1-yl]-2-oxo-ethoxy]-2-methyl-phenoxy]-acetyl]-pyrrolidine-2-carboxylic acid]
Percent inhibition of binding of radiolabelled SAP to immobilized Neisseria meningitidis (SAP [1]; compound 200 nM): 1%
Percent inhibition of binding of radiolabelled SAP to immobilized Neisseria meningitidis (SAP [1]; compound 2 μM): 64%
Percent inhibition of binding of radiolabelled SAP to immobilized Neisseria meningitidis (SAP [1]; compound 20 μM): 93%
Percent inhibition of binding of radiolabelled SAP to immobilized Neisseria meningitidis (SAP [1]; compound 200 μM): 100%
Percent inhibition of binding of radiolabelled SAP to immobilized Neisseria meningitidis (SAP [1]; compound 2 mM): 100%
Percent inhibition of binding of radiolabelled SAP to immobilized native long chromatin (SAP [2]; compound 200 nM): 0%
Percent inhibition of binding of radiolabelled SAP to immobilized native long chromatin (SAP [2]; compound 2 μM): 22%
Percent inhibition of binding of radiolabelled SAP to immobilized native long chromatin (SAP [2]; compound 20 μM): 65%
Percent inhibition of binding of radiolabelled SAP to immobilized native long chromatin (SAP [2]; compound 200 μM): 95%
Percent inhibition of binding of radiolabelled SAP to immobilized native long chromatin (SAP [2]; compound 2 mM): 98%
Percent inhibition of binding of radiolabelled SAP to immobilized influenza virus (SAP [3]; compound 200 nM): 24%
Percent inhibition of binding of radiolabelled SAP to immobilized influenza virus (SAP [3]; compound 2 μM): 65%
Percent inhibition of binding of radiolabelled SAP to immobilized influenza virus (SAP [3]; compound 20 μM): 81%
Percent inhibition of binding of radiolabelled SAP to immobilized influenza virus (SAP [3]; compound 200 μM): 81%
Percent inhibition of binding of radiolabelled SAP to immobilized influenza virus (SAP [3]; compound 2 mM): 85%

O=C(O)[C@H]1CCCN1C(=O)Cc1cc(O)c(CC(=O)N2CCC[C@@H]2C(=O)O)cc1O [Ro-64-4383, (R)-1-[[2,5-Dihydroxy-4-[2-[(R)-2-carboxy-pyrrolidin-1-yl]-2-oxo-ethyl]-phenyl]-acetyl]-pyrrolidine-2-carboxylic acid]
inhibition at 0.2 µM (SAP [1]; compound 200 nM): 1%
inhibition at 2 µM (SAP [1]; compound 2 μM): 76%
inhibition at 20 µM (SAP [1]; compound 20 μM): 95%
inhibition at 200 µM (SAP [1]; compound 200 μM): 100%
inhibition at 2000 µM (SAP [1]; compound 2 mM): 100%
inhibition at 0.2 µM (SAP [2]; compound 200 nM): 0%
inhibition at 2 µM (SAP [2]; compound 2 μM): 45%
inhibition at 20 µM (SAP [2]; compound 20 μM): 78%
inhibition at 200 µM (SAP [2]; compound 200 μM): 88%
inhibition at 2000 µM (SAP [2]; compound 2 mM): 97%
inhibition at 0.2 µM (SAP [3]; compound 200 nM): 24%
inhibition at 2 µM (SAP [3]; compound 2 μM): 57%
inhibition at 20 µM (SAP [3]; compound 20 μM): 80%
inhibition at 200 µM (SAP [3]; compound 200 μM): 89%
inhibition at 2000 µM (SAP [3]; compound 2 mM): 89%

O=C(O)[C@H]1CCCN1C(=O)COc1cccc2c(OCC(=O)N3CCC[C@@H]3C(=O)O)cccc12 [Ro-64-5445, (R)-1-[[5-[2-[(R)-2-Carboxy-pyrrolidin-1-yl]-2-oxo-ethoxy]-naphthalen-1-yloxy]-acetyl]-pyrrolidine-2-carboxylic acid]
inhibition at 0.2 µM (SAP [1]; compound 200 nM): 30%
inhibition at 2 µM (SAP [1]; compound 2 μM): 72%
inhibition at 20 µM (SAP [1]; compound 20 μM): 81%
inhibition at 200 µM (SAP [1]; compound 200 μM): 100%
inhibition at 2000 µM (SAP [1]; compound 2 mM): 100%
inhibition at 0.2 µM (SAP [2]; compound 200 nM): 12%
inhibition at 2 µM (SAP [2]; compound 2 μM): 51%
inhibition at 20 µM (SAP [2]; compound 20 μM): 74%
inhibition at 200 µM (SAP [2]; compound 200 μM): 82%
inhibition at 2000 µM (SAP [2]; compound 2 mM): 96%
inhibition at 0.2 µM (SAP [3]; compound 200 nM): 23%
inhibition at 20 µM (SAP [3]; compound 20 μM): 64%
inhibition at 200 µM (SAP [3]; compound 200 μM): 76%
inhibition at 2000 µM (SAP [3]; compound 2 mM): 80%
